Source: patent US8614240B2, “Benzoxazole derivatives having inhibitory activity against interleukin-6, preparation method thereof, and pharmaceutical composition containing the same” (EWHA University-Industry Collaboration Foundation, priority 2010, dated 2013)
pIC50: −log10 of the molar value. Where two headings read alike, the source gives them in different places.

Legend:
[1] = tested on: IL-6 reactive STAT3 reporter gene; experiment: IL-6 reactive STAT3 reporter gene test (pSTAT3-TA-Luc6 luciferase) in HepG2 cells; type: cell-based; conditions: Homo sapiens
Experimental: A pSTAT3-TA-Luc6 construct, which comprises 8 more STAT3 DNA binding sequence copies as compared to pSTAT-3-TA-Luc and thus, enables to better reflect STAT3 reporter gene assay, was prepared. STAT3 DNA binding sequence was amplified using pSTAT3-TA-Luc plasmid (Clontech, Palo Alto, Calif.) as the template, and oligonucleotide ([…]. SEQ ID NO: 1 (containing Kpn I site)) and oligonucleotide ([…] GAAGCAACGTTC (containing Xho I site)) as forward primer and reverse primer, respectively, by means of a thermocycler. The amplified PCR product was cloned, separated, and then inserted into Kpn I/Xho I site of pSTAT3-TA-Luc plasmid.
Human hepatoma cell line, HepG2 cell, was incubated in MEM (Minimal Essential Medium, WelGENE Inc, Daegu, Korea) medium under water-saturated condition at 37° C., 5% CO2. To this medium was added 10% (v/v) fetal bovine serum, streptomycin (100 U/mL) and penicillin (100 U/mL). 6-Well cell culture plate was allowed to grow cells up to 80%, and then the specimen was pre-treated for one hour. Then, the medium was changed into 50 μL of serum-free medium, and the mixed solution of 0.1 μL pSTAT3-TA-Luc6 construct and 0.3 μL lipofectamin reagent was added to each well and then allowed to react for 3 hours to transfect cells with pSTAT3-TA-Luc6 construct. The medium was changed to a fresh medium, and the plate was incubated for 24 hours to transiently transfect cells. The transfected cells were serum-starved with 1% BSA/DMEM, and treated with the samples for one hour and then, after adding IL-6, incubated for 3 hours. The mixture was washed with PBS, shaken for one minute with addition of 50 μL of lysis buffer (promega luciferase assay system). After adding 30-100 μL of luciferase substrate (Promega luciferase assay system), the mixture was measured by a luminometer within 5 minutes.
Among others Compounds 1 and 3 as the materials having high inhibitory effect on IL-6 activity were used at various concentration to measure the degree of inhibitory effect, and the results thereof are as shown in FIGS. 2 and 3.

[2] = tested on: IL-6 induced STAT3 phosphorylation; experiment: Test for inhibitory activity against STAT3 phosphorylation induced by IL-6 (Western blot, HepG2); type: cell-based, human; conditions: HepG2, 1, 3, 10, 30, 100 ug/ml, 10 ng/ml IL-6 (FIG. 4)
Experimental: HepG2 cells were divisionally inoculated in 6-well plate in the ratio of 5×10^4 cells/well, and grown to be 80% confluent. After changing to a serum-free medium and incubating for 6 hours, cells were pre-treated with the samples for one hour. […] Then the mixture was centrifuged (13,000×g, 15 minutes) to obtain a lysate as the supernatant. Herein, HepG2 cells not treated with IL-6 and the samples were used as the control group. The concentration of proteins was quantified by means of Bio-Rad DC protein assay kit, and the protein was loaded on 10% SDS-polyacrylamide gel (SDS-PAGE) and electrophoresed at 30 mA for 2 hours. After completion of the electrophoresis, the protein on gel was transcribed into PVDF membrane (Westran® S, pore size […]) at 90V for 90 minutes, and the transcribed membrane was blocked with Tris-buffered solution (T-TBS; 50 mM Tri-HCl, pH 7.6, 150 mM NaCl, 0.2% Tween-20, 5% skim milk) at 4° C. for 12 hours, and washed five time with T-TBS. The membrane was treated with polyclonal antibodies of phospho-STAT3 (1:1000 dilutions, respectively) as the primary antibody for 2 hours. After washing five times with T-TBS, the membrane was reacted with HRP-conjugated anti-rabbit antibody (1:5000 dilutions) as the secondary antibody for one hour. After washing with T-TBS, the film was developed in the dark room by means of ECL.

[3] = tested on: IL-6 induced ERK phosphorylation; experiment: Test for inhibitory activity against ERK phosphorylation induced by IL-6 (Western blot, HepG2); type: cell-based, human; conditions: HepG2, 30 μg/ml (FIG. 5)
Experimental: HepG2 cell was divisionally inoculated in 6-well plate, and then starved for 18 hours.
The starved cells were treated with the samples for one hour, and then stimulated with IL-6 or LIF (Upstate Biotechnology, USA) for 10 minutes. The specimen was treated with 5× cell lysis buffer (Promega) sometimes with vortexing under ice for 30 minutes. The cell lysate obtained as described under B in Experiment 1 (3) was dissolved in 8% SDS-PAGE gel, and transferred to the nitrocellulose membrane. This membrane was blocked with Tris-buffered solution (50 mM Tris-HCl (pH 7.4), 150 mM NaCl, 0.1% Tween 20) containing 5% non-fat dry milk at 4° C. Then, it was incubated together with an appropriate primary antibody (ERK) present in Tris-buffered solution (50 mM Tris-HCl (pH 7.4), 150 mM NaCl, 0.1% Tween 20) containing 5% non-fat dry milk, at room temperature for 1-2 hours. This membrane was washed five times with TBS buffer solution for 10 minutes, and incubated with 1:6000 diluted horseradish peroxidase-conjugated secondary antibodies for one hour. The membrane was washed 10 times with TBS buffer solution, and then mixed and incubated with the 1:1 mixture of HRP Substrate Luminol Reagent and HRP Substrate Peroxide Solution as ELC reagent (Millipore Corp. Ma USA). The chemiluminescent signals were visualized with X-ray film.

[4] = tested on: Respective cell lines; experiment: Cytotoxicity assay (MTT); type: cell-based; conditions: 48 hours
Experimental: In testing the compounds in cell lines, if cells are killed due to a toxicity of the compounds at the treatment concentration, a significant result cannot be obtained. Therefore, the toxicity assay was conducted by treatment with the compounds as follows. Respective cell lines were maintained on 96-well cell culture plate in the medium comprising 10% FBS with 1% Penicillin G/streptomycin, and then incubated under 37° C., 5% CO2 condition. All the experiments were repeated three times. The samples were properly diluted, and then cells were treated with the diluted samples at the concentrations of 1, 3, 10, 30, 100 μg/ml. After 48 hours, 10% (v/v) 5 mg/mL 3-(4,5-dimethylthiazol-2-yl)-2,5-diphenyltetrazolium bromide (MTT; Sigma) was added to the cell culture. After 3 hours of the incubation, the medium was aspirated and washed with PBS. After adding DMSO (100 μl), the mixture was gently agitated for 5 minutes. The absorbance was measured at 570 nm by means of VERSA max microplate reader (Molecular Devices Inc.), and the average absorbance (±SE) values as obtained from three experiments were compared with t-test, a statistical significance of P<0.05. When Compounds 1 and 3 were used at the concentrations of 1, 3, 10, 30, 100 μg/ml, the survival rates of cells were 94, 76, 70, 67, 30%, respectively, by the treatment with Compound 1, and 74, 71, 65, 57, 19%, respectively, by the treatment with Compound 3. It means that at least 50% of cells survive at the concentration (for example, 30 μg/ml) of the compounds of the present invention for measuring IL-6 inhibitory activity.

[5] = HepG2, 20 ug/ml of sample, HepG2 cells, read-out: Inhibition % of IL-6 reactive STAT3 reporter gene activity

| melting point [°C] | SMILES | inhibition at 20 µg/mL [1, 5] [%] | also measured |
| --- | --- | --- | --- |
| > 250 | CCc1ccc(Nc2nc3cc(NC(=O)c4ccc([N+](=O)[O-])cc4Cl)ccc3o2)cc1 [Compound 5, 2-chloro-N-(2-(4-ethylphenylamino)benzo[d]oxazol-5-yl)-4-nitrobenzamide] | 20 | – |
| 181.6 to 182 | CCOc1ccccc1C(=O)Nc1ccc2oc(Nc3ccc(CC)cc3)nc2c1 [Compound 11, 2-ethoxy-N-(2-(4-ethylphenylamino)-benzo[d]oxazol-5-yl)benzamide] | 58 | – |
| > 250 | CCc1ccc(Nc2nc3cc(NC(=O)Cc4ccccc4)ccc3o2)cc1 [Compound 2, N-(2-(4-ethylphenylamino)benzo[d]oxazol-5-yl)-2-phenylacetamide] | 61.7 | – |
| > 250 | CCc1ccc(Nc2nc3cc(NC(=O)c4ccc(Cl)cc4)ccc3o2)cc1 [Compound 4, 4-chloro-N-(2-(4-ethylphenylamino)benzo[d]oxazol-5-yl)benzamide] | 12.1 | – |
| > 250 | CCc1ccc(Nc2nc3cc(NC(=O)c4ccc(CC)cc4)ccc3o2)cc1 [Compound 9, 4-ethyl-N-(2-(4-ethylphenylamino)benzo[d]oxazol-5-yl)benzamide] | 63.3 | – |
| > 250 | CCc1ccc(Nc2nc3cc(NC(=O)c4cc(F)cc(C(F)(F)F)c4)ccc3o2)cc1 [Compound 10, N-(2-(4-ethylphenylamino)benzo[d]oxazol-5-yl)-3-fluoro-5-(trifluoromethyl)benzamide] | 50.2 | – |
| > 250 | CCc1ccc(Nc2nc3cc(NC(=O)c4ccc(OC)c(OC)c4)ccc3o2)cc1 [Compound 13, N-(2-(4-ethylphenylamino)benzo[d]oxazol-5-yl)-3,4-dimethoxybenzamide] | 26.2 | – |
| 244.8 to 246 | CCCCCCCc1ccc(C(=O)Nc2ccc3oc(Nc4ccc(CC)cc4)nc3c2)cc1 [Compound 15, N-(2-(4-ethylphenylamino)benzo[d]oxazol-5-yl)-4-heptylbenzamide] | 57.2 | – |

The remaining lines, values behind:

| SMILES | melting point [°C] | inhibition at 20 µg/mL [1, 5] [%] | also measured |
| --- | --- | --- | --- |
| CCc1ccc(Nc2nc3cc(NC(=O)c4cc([N+](=O)[O-])ccc4Cl)ccc3o2)cc1 [Compound 6, 2-chloro-N-(2-(4-ethylphenylamino)benzo[d]oxazol-5-yl)-5-nitrobenzamide] | – | 65.6 | – |
| CCc1ccc(Nc2nc3cc(NC(=O)c4ccc(Cl)c(Cl)c4)ccc3o2)cc1 [Compound 7, 3,4-dichloro-N-(2-(4-ethylphenylamino)-benzo[d]oxazol-5-yl)benzamide] | – | 69.3 | – |
| CCc1ccc(Nc2nc3cc(NC(=O)c4ccccc4Nc4cccc(C(F)(F)F)c4)ccc3o2)cc1 [Compound 16, N-(2-(4-ethylphenylamino)benzo[d]oxazol-5-yl)-2-(3-(trifluoromethyl)phenylamino)benzamide] | 174 to 176 | > 80 | – |
| CCc1ccc(Nc2nc3cc(NC(=O)c4cc(OC)c(OC)c(OC)c4)ccc3o2)cc1 [Compound 14, N-(2-(4-ethylphenylamino)benzo[d]oxazol-5-yl)-3,4,5-trimethoxybenzamide] | > 250 | – | inhibition at 20 µg/mL ([1]; HepG2, read-out: Inhibition % of IL-6 reactive STAT3 reporter gene activity, 20 ug/ml of sample, HepG2 cells): > 80% |
| CCc1ccc(Nc2nc3cc(N)ccc3o2)cc1 [Compound 1, N^2-(4-ethylphenyl)benzo[d]oxazole-2,5-diamine] | – | 97 | Inhibitory activity on IL-6 induced STAT3 phosphorylation [2]: inhibited IL-6 expression in a concentration-dependent manner; Influence on IL-6 induced ERK phosphorylation [3]: did not influence on ERK phosphorylation; Survival rate of cells ([4]; 1 μg/ml): 94%; Survival rate of cells ([4]; 3 μg/ml): 76%; Survival rate of cells ([4]; 10 μg/ml): 70%; Survival rate of cells ([4]; 30 μg/ml): 67%; Survival rate of cells ([4]; 100 μg/ml): 30%; pIC50 ([1]; HepG2 cells, various concentrations (FIGS. 2 and 3), read-out: IC50 of IL-6 inhibitory activity (STAT3 reporter gene)): 4.72 |
| CCc1ccc(Nc2nc3cc(NC(=O)c4cccc(CCl)c4)ccc3o2)cc1 [Compound 8, 3-(chloromethyl)-N-(2-(4-ethylphenyl-amino)benzo[d]oxazol-5-yl)benzamide] | – | > 80 | – |
| CCc1ccc(Nc2nc3cc(NC(=O)c4ccc(C(C)(C)C)cc4)ccc3o2)cc1 [Compound 12, 4-tert-butyl-N-(2-(4-ethylphenylamino)-benzo[d]oxazol-5-yl)benzamide] | – | > 80 | – |
